From PubChem BioAssay AID1117355 (Cheminformatics & Chemogenomics Research Group (CCRG), …, 2015)
Active and inactive are the calls of the source. How the calls were made is not given here.

Molecular target: Glycogen synthase kinase-3 beta (Homo sapiens) (UniProt P49841)
Assay: NPC library primary assay, GSK-3β enzyme inhibitors, biochemical, Homo sapiens, LANCE Ultra TR-FRET detection (AID 1117355)
Details: LANCE Ultra TR-FRET kinase activity; at 20 µM (top of the series)

Sequence of Glycogen synthase kinase-3 beta (Homo sapiens) (P49841 whole entry, looked up): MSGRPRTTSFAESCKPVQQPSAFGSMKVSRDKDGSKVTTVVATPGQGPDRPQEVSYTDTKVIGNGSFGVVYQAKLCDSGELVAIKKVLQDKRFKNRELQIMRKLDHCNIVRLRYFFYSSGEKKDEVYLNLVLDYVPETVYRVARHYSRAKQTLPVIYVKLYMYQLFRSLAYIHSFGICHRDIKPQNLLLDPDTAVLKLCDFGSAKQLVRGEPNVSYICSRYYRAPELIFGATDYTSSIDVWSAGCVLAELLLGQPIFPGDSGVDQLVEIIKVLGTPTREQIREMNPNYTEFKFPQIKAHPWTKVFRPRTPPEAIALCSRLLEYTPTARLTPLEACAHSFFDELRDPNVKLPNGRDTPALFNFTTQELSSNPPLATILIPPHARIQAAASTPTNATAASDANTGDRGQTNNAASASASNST

| SMILES | inhibition |
| --- | --- |
| C=C(C)[C@H]1Cc2c(ccc3c2O[C@@H]2COc4cc(OC)c(OC)cc4[C@@H]2C3=O)O1 | 21.6% (inactive) |
| COc1cc2nc(N3CCN(C(=O)c4ccco4)CC3)nc(N)c2cc1OC | -50.4% (inactive) |
| CC(C)C[C@H](NC(=O)[C@H](CCc1ccccc1)NC(=O)CN1CCOCC1)C(=O)N[C@@H](Cc1ccccc1)C(=O)N[C@@H](CC(C)C)C(=O)[C@@]1(C)CO1 | 20.4% (inactive) |
| COC(=O)Nc1nc2ccc(C(=O)c3cccs3)cc2[nH]1 | 42.2% (inactive) |
| Cc1nc(Nc2ncc(C(=O)Nc3c(C)cccc3Cl)s2)cc(N2CCN(CCO)CC2)n1 | 38.8% (inactive) |
| CCC1=C[C@@H]2CN(C1)Cc1c([nH]c3ccccc13)[C@@](C(=O)OC)(c1cc3c(cc1OC)N(C)[C@H]1[C@@](O)(C(=O)OC)[C@H](OC(C)=O)[C@]4(CC)C=CCN5CC[C@]31[C@@H]54)C2 | 24.2% (inactive) |
| [O-][n+]1ccccc1SSc1cccc[n+]1[O-] | -25.6% (inactive) |
| C[n+]1c2cc(N)ccc2cc2ccc(N)cc21 (tested in a mixture with another compound) | -24.7% (inactive) |
| O=C(O)c1ccc(-n2nc(-c3ccccc3O)nc2-c2ccccc2O)cc1 | 37.5% (inactive) |
| COc1cc(-c2ccc(=O)[nH]n2)ccc1OC(F)F | -21.7% (inactive) |
| CCCCCCCCCCCCCCCCCCNC(=O)OC1CCN(C(=O)OC[C@H](COC(=O)N(Cc2cccc[n+]2CC)C(=O)c2ccccc2OC)OC)CC1 | 24% (inactive) |
| CC[C@@H]([C@H](C)O)n1ncn(-c2ccc(N3CCN(c4ccc(OC[C@@H]5CO[C@@](Cn6cncn6)(c6ccc(F)cc6F)C5)cc4)CC3)cc2)c1=O | 8.55% (inactive) |
| CN(C)c1ccc2nc3ccc(=[N+](C)C)cc-3sc2c1 | -210% (inactive) |
| COCc1c(C(C)C)nc(C(C)C)c(/C=C/[C@@H](O)C[C@@H](O)CC(=O)O)c1-c1ccc(F)cc1 | 3.27% (inactive) |
| CN1CC[C@H](c2c(O)cc(O)c3c(=O)cc(-c4ccccc4Cl)oc23)[C@H](O)C1 | 99.9% |
| Cn1cnc([N+](=O)[O-])c1Sc1ncnc2nc[nH]c12 | -18.2% (inactive) |
| Cc1ccc([N+](=O)[O-])[c]2c1[O][Hg]2 | 66.1% |
| O=c1c(-c2ccccc2)c1-c1ccccc1 | 31.4% (inactive) |
| CCCN(CCC)C(=O)C(CCC(=O)OCCCN1CCN(CCOC(=O)Cc2c(C)n(C(=O)c3ccc(Cl)cc3)c3ccc(OC)cc23)CC1)NC(=O)c1ccccc1 (stereo unspecified) | 0.27% (inactive) |
| Cc1cc(O)c2ccccc2c1O | 50.4% |
| COc1ccc(-c2nc3ccc(C4=NNC(=O)CC4C)cc3[nH]2)cc1 (stereo unspecified) | -64.9% (inactive) |

| SMILES | inhibition |
| --- | --- |
| CCN(CC)CCNC(=O)c1c(C)[nH]c(/C=C2\C(=O)Nc3ccc(F)cc32)c1C | 62.9% |
| S=c1nc[nH]c2nc[nH]c12 | 20.7% (inactive) |
| O=C(CCl)c1ccc(Cl)cc1Cl | 9.91% (inactive) |
| Cc1ccc2nc(N)[nH]c(=O)c2c1Sc1ccncc1 | -35.9% (inactive) |
| CCCOc1ccc2nc(NC(=O)OC)[nH]c2c1 | -5.09% (inactive) |
| O=C1c2c(O)ccc(O)c2C(=O)c2c(NCCNCCO)ccc(NCCNCCO)c21 | -5.18% (inactive) |
| COc1cccc2c1C(=O)c1c(O)c3c(c(O)c1C2=O)C[C@@](O)(C(C)=O)C[C@@H]3O[C@H]1C[C@H](N)[C@H](O)[C@H](C)O1 | 7.12% (inactive) |
| Oc1c(Cl)cc(Cl)c2cccnc12 | -26.5% (inactive) |
| Oc1c(I)cc(I)c2cccnc12 | -1.57% (inactive) |
| Nc1nc(=S)c2[nH]cnc2[nH]1 | -30.7% (inactive) |
| COC(=O)Nc1nc2ccc(C(=O)C3CC3)cc2[nH]1 | 54.4% |
| O=[N+]([O-])c1ccc(O)c2ncccc12 | -9.81% (inactive) |
| O=c1[nH]c(=O)n([C@H]2C[C@H](O)[C@@H](CO)O2)cc1F | -21.3% (inactive) |
| CC(=O)Oc1ccc(C2(c3ccc(OC(C)=O)cc3)Oc3ccccc3NC2=O)cc1 | 19% (inactive) |
| CSc1ccc2c(c1)C(N1CCN(C)CC1)Cc1ccccc1S2 (stereo unspecified) | 0.73% (inactive) |
| Cc1nc2ccc(CN(C)c3ccc(C(=O)N[C@@H](CCC(=O)O)C(=O)O)s3)cc2c(=O)[nH]1 | 81.3% |
| O=C(Nc1ccc([N+](=O)[O-])cc1Cl)c1cc(Cl)ccc1O | -11.3% (inactive) |
| CC[C@]1(O)C[C@@H]2CN(CCc3c([nH]c4ccccc34)[C@@](C(=O)OC)(c3cc4c(cc3OC)N(C)[C@H]3[C@@](O)(C(=O)OC)[C@H](OC(C)=O)[C@]5(CC)C=CCN6CC[C@]43[C@@H]65)C2)C1 | -4.66% (inactive) |
| CCCSc1ccc2nc(NC(=O)OC)[nH]c2c1 | -11.3% (inactive) |
| COc1cc([C@@H]2c3cc4c(cc3[C@H](O)[C@H]3COC(=O)[C@H]23)OCO4)cc(OC)c1OC | 26.6% (inactive) |
| Cc1cc(C2CCCCC2)n(O)c(=O)c1 | 0.84% (inactive) |

| SMILES | inhibition |
| --- | --- |
| COc1cc2c(c(OC)c1OC)-c1ccc(OC)c(=O)cc1[C@@H](NC(C)=O)CC2 | 4.13% (inactive) |
| Nc1ccc2cc3ccc(N)cc3nc2c1 | -57.5% (inactive) |
| NC(=NCCCCCCN=C(N)/N=C(\N)Nc1ccc(Cl)cc1)/N=C(\N)Nc1ccc(Cl)cc1 | 0.77% (inactive) |
| Cc1nc(N)nc(N)c1-c1ccc(Cl)c(Cl)c1 | -1.14% (inactive) |
| COC(=O)Nc1nc2ccc(S(=O)c3ccccc3)cc2[nH]1 (stereo unspecified) | -3.53% (inactive) |
| CCCCCCCCCCCCCCCC[n+]1ccccc1 | -21.5% (inactive) |
| CCc1nc(N)nc(N)c1-c1ccc(Cl)cc1 | -8.63% (inactive) |
| C[C@@]12C(=O)OC(=O)[C@]1(C)C1CCC2O1 | 2.16% (inactive) |
| COc1ccc2cc1Oc1ccc(cc1)C[C@H]1c3c(cc4c(c3Oc3cc5c(cc3OC)CCN(C)[C@@H]5C2)OCO4)CCN1C | 2.24% (inactive) |
| COC(=O)[C@H]1[C@H]2C[C@@H]3c4[nH]c5cc(OC)ccc5c4CCN3C[C@H]2C[C@@H](OC(=O)/C=C/c2ccc(O)c(OC)c2)[C@@H]1OC | 7.56% (inactive) |
| CCCCCCCCCCCCCC[N+](C)(C)C | -4.51% (inactive) |
| COc1c(C)c2c(c(O)c1C/C=C(\C)CCC(=O)OCCN1CCOCC1)C(=O)OC2 | 11.3% (inactive) |
| C=CC(=O)Nc1cc2c(Nc3ccc(F)c(Cl)c3)ncnc2cc1OCCCN1CCOCC1 | 31.2% (inactive) |
| CCN(CC)CCOc1ccc(/C(=C(\Cl)c2ccccc2)c2ccccc2)cc1 | -11.9% (inactive) |
| CC[C@]1(O)C[C@H]2CN(CCc3c([nH]c4ccccc34)[C@@](C(=O)OC)(c3cc4c(cc3OC)N(C=O)[C@H]3[C@@](O)(C(=O)OC)[C@H](OC(C)=O)[C@]5(CC)C=CCN6CC[C@]43[C@@H]65)C2)C1 | -0.84% (inactive) |
| CC(C)(C)C(=O)OCOP(=O)(COCCn1cnc2c(N)ncnc21)OCOC(=O)C(C)(C)C | 7.97% (inactive) |
| O=C(CCCCCCC(=O)Nc1ccccc1)NO | -28.8% (inactive) |
| CC[C@@]1(O)C(=O)OCc2c1cc1n(c2=O)Cc2c-1nc1ccccc1c2/C=N/OC(C)(C)C | 16.9% (inactive) |
| CC(=O)[C@]1(O)Cc2c(O)c3c(c(O)c2[C@@H](O[C@H]2C[C@H](N)[C@H](O)[C@H](C)O2)C1)C(=O)c1ccccc1C3=O | 5.63% (inactive) |
| COc1cc(NCc2ccc3nc(N)nc(N)c3c2C)cc(OC)c1OC | 2.46% (inactive) |
| Cc1cc(C)c(/C=C2\C(=O)Nc3ccccc32)[nH]1 | -34.3% (inactive) |

| SMILES | inhibition |
| --- | --- |
| CCC(C)n1ncn(-c2ccc(N3CCN(c4ccc(OC[C@H]5CO[C@](Cn6cncn6)(c6ccc(Cl)cc6Cl)O5)cc4)CC3)cc2)c1=O (stereo partly specified) | 14.1% (inactive) |
| CCCCCCNC(=O)n1cc(F)c(=O)[nH]c1=O | -7.61% (inactive) |
| Cc1cc2c(C(C)C)c(O)c(O)c(C=O)c2c(O)c1-c1c(C)cc2c(C(C)C)c(O)c(O)c(C=O)c2c1O | 7.52% (inactive) |
| CNC(=O)c1cc(Oc2ccc(NC(=O)Nc3ccc(Cl)c(C(F)(F)F)c3)cc2)ccn1 | 47.6% (inactive) |
| CCCCc1oc2ccccc2c1C(=O)c1cc(I)c(OCCN(CC)CC)c(I)c1 | 26% (inactive) |
| O=c1[nH]c(=O)n([C@H]2C[C@H](O)[C@@H](CO)O2)cc1C(F)(F)F | 17.2% (inactive) |
| CCCCC1C(=O)N(c2ccccc2)N(c2ccc(O)cc2)C1=O (stereo unspecified) | 5.48% (inactive) |
| O=C(NOCC1CC1)c1ccc(F)c(F)c1Nc1ccc(I)cc1Cl | -12.6% (inactive) |
| COc1ccc(-c2ccc3cc(C(=O)O)ccc3c2)cc1C12CC3CC(CC(C3)C1)C2 | 79.4% |
| CCN(CC)CCNc1ccc(CO)c2sc3ccccc3c(=O)c12 | 24.6% (inactive) |
| CC(C)(C)C1CCC(CC2=C(O)c3ccccc3C(=O)C2=O)CC1 (stereo unspecified) | 10.2% (inactive) |
| COC(=O)Nc1nc2ccc(Sc3ccccc3)cc2[nH]1 | -21% (inactive) |
| Cc1ccccc1C(=O)Nc1ccc(C(=O)N2CCCC(N(C)C)c3ccccc32)cc1 (stereo unspecified) | 18.2% (inactive) |
| CC(C)C[C@H](NC(=O)[C@H](Cc1ccccc1)NC(=O)c1cnccn1)B(O)O | 1.64% (inactive) |
| COC(=O)Nc1nc2ccc(C(=O)c3ccccc3)cc2[nH]1 | 25.4% (inactive) |
| Oc1c(Cl)cc(Cl)cc1Sc1cc(Cl)cc(Cl)c1O | 81.3% |
| COC(=O)c1nc(Cl)c(Cl)nc1N | 20.8% (inactive) |
| Cc1cc(=O)c2c(O)c3c(O)cc(=O)c4c3c3c(cc(O)c1c23)C(C)(C)C=4O | 60.6% |
